Experimental data as given in PMC11638278, “Ascorbate: a forgotten component in the cytotoxicity of Cu(II) ATCUN peptide complexes” (Journal of Biological Inorganic Chemistry, 2024).

System: AGS cells (gastric adenocarcinoma)
Assay: MTT cell viability assay on AGS cells
Format: cell-based
Settings: AscH− 100 µM alone (negative control), 48 h
Description: The complexes 1–3, Cu-GGH, CuCl2 and the peptides a-c, GGH alone were tested on three different cancer cell lines towards their cytotoxic activity: HeLa cells (cervical adenocarcinoma), AGS and NCI-N87 cells (both gastric adenocarcinoma). The cells were grown and treated with compounds in RPMI Medium 1640 (1×) supplemented with 10% fetal calf serum in a humidified incubator with 5% CO2 at 37 °C. MTT cell viability assays were carried out at two concentrations (100 and 250 µM) at least in duplicate (in AGS cells additionally in two independent experiments). The Annexin V-FITC apoptosis assay was carried out at a compound concentration of 500 µM in duplicate in two independent experiments.
For the MTT cell viability assay (Sigma Aldrich), cells were seeded at 10 000 (HeLa and AGS) and 20 000 (NCI-N87) cells/well in 96-well plates and left to settle for 24 h. […] Quantification of the formazan was ensured by a Spectramax M5 (Molecular Devices) microplate reader at an absorbance of 470 nm to determine the percentage of cell-growth inhibition of each sample (with compound) relative to a negative control (no compound). […]

## O=C1O[C@H]([C@@H](O)CO)C(O)=C1O [AscH^−, sodium ascorbate]
  cytotoxicity of the additive alone: does not show significant cytotoxicity
